Test results taken from patent US20260241307A1, “PROCESS FOR MAKING DRUG CRYSTALS OF DESIRED SIZE DISTRIBUTION AND MORPHOLOGY” (EUPRAXIA PHARMACEUTICALS INC., priority 2019, published 2026).

How the values were obtained:
Format in all cases: physicochemical
[1] = Laser diffraction particle size analysis of recrystallized crystals; conditions: large scale batch, recrystallized from methanol, slow evaporation, isotherm 25° C.
Source text: As used herein, laser diffraction is the methodology used for measuring and analyzing particle size and size distribution of a sample or collection of particles (e.g., the recrystallized columnar crystals and the sized crystals). More specifically, a D10 value refers to the diameter at which 10% of the sample's mass is comprised of particles with a diameter less than this value. Likewise, a D50 value is the diameter of the particle that 50% of a sample's mass is smaller than and 50% of a sample's mass is larger than the value.
In histogram, D10, D50 and D90 are intercepts for 10%, 50% and 90% of the cumulative mass in the particles size. Since the density is the same for all particles, then the mass and volume are linearly related, thus the % remains the same. The method used also reports the cumulative distribution in volume.
Different large-scale batches were run to show the reproducibility of the recrystallization method. Laser diffraction results of particle size analysis for four large scale batches are below:
(§1) The laser diffraction method assumes an equivalent sphere when calculating the results. The aspect ratio in the imaging analysis show a range of aspect ratio from 3 to 50, while a majority of aspect ratios are in the range of 5-20.

[2] = Imaging analysis of aspect ratio
Source text: as §1

[3] = Particle size distribution by Malvern particle size analyzer (sized crystals); conditions: after milling in rotor/stator homogenizer and sieving
Source text: The milled crystals were then sieved through two separate sieves to eliminate fines or remnant large crystals. […] As shown, the drug crystal obtained have relatively narrow distribution and the minimal amount of fine material and absence of very fine material (no particles below 9 μm).

Row | SMILES | D10 [1] [µm] | D50 [1] [µm] | D90 [1] [µm] | aspect ratio, majority ([2]; majority of aspect ratios) | aspect ratio, range ([2]; whole range) | smallest particle size (no particles below) [3] [μm]
1 | CCC(=O)O[C@]1(C(=O)SCF)[C@H](C)C[C@H]2[C@@H]3C[C@H](F)C4=CC(=O)C=C[C@]4(C)[C@@]3(F)[C@@H](O)C[C@@]21C [Batch 1, fluticasone propionate] | 119 | 365 | 876 | – | – | –
2 | CCC(=O)O[C@]1(C(=O)SCF)[C@H](C)C[C@H]2[C@@H]3C[C@H](F)C4=CC(=O)C=C[C@]4(C)[C@@]3(F)[C@@H](O)C[C@@]21C [recrystallized fluticasone propionate, fluticasone propionate] | – | – | – | 5-20 | 3 to 50 | –
3 | CCC(=O)O[C@]1(C(=O)SCF)[C@H](C)C[C@H]2[C@@H]3C[C@H](F)C4=CC(=O)C=C[C@]4(C)[C@@]3(F)[C@@H](O)C[C@@]21C [resized drug crystals, fluticasone propionate] | – | – | – | – | – | ≥ 9

Further lines, results first:

Row | D10 [1] [µm] | D50 [1] [µm] | D90 [1] [µm] | aspect ratio, majority ([2]; majority of aspect ratios) | aspect ratio, range ([2]; whole range) | smallest particle size (no particles below) [3] [μm] | SMILES
4 | 97 | 323 | 838 | – | – | – | CCC(=O)O[C@]1(C(=O)SCF)[C@H](C)C[C@H]2[C@@H]3C[C@H](F)C4=CC(=O)C=C[C@]4(C)[C@@]3(F)[C@@H](O)C[C@@]21C [Batch 2, fluticasone propionate]
5 | 72 | 253 | 798 | – | – | – | CCC(=O)O[C@]1(C(=O)SCF)[C@H](C)C[C@H]2[C@@H]3C[C@H](F)C4=CC(=O)C=C[C@]4(C)[C@@]3(F)[C@@H](O)C[C@@]21C [Batch 3, fluticasone propionate]
6 | 82 | 288 | 820 | – | – | – | CCC(=O)O[C@]1(C(=O)SCF)[C@H](C)C[C@H]2[C@@H]3C[C@H](F)C4=CC(=O)C=C[C@]4(C)[C@@]3(F)[C@@H](O)C[C@@]21C [Batch 4, fluticasone propionate]
